Test results as given in article PMC11790763, “A Peptide Motif Covering Splice Site B in Neuroligin-1 Binds to Aβ and Acts as a Neprilysin Inhibitor” (Molecular Neurobiology, 2024).
Bridges are numbered along the chain shown (N, C = ends). Roman numbers before positions name the chains, in order. Where no end group is shown, it is not given here.

T1: brain-derived NEP (Mus musculus, UniProt Q61391)
T1 construct: Clear supernatants were used as membrane-extracted fractions; from tissue; host or cells: adult mouse brain without cerebellum, Triton X-100-extracted membrane fraction
T1 sequence (Q61391 1-750): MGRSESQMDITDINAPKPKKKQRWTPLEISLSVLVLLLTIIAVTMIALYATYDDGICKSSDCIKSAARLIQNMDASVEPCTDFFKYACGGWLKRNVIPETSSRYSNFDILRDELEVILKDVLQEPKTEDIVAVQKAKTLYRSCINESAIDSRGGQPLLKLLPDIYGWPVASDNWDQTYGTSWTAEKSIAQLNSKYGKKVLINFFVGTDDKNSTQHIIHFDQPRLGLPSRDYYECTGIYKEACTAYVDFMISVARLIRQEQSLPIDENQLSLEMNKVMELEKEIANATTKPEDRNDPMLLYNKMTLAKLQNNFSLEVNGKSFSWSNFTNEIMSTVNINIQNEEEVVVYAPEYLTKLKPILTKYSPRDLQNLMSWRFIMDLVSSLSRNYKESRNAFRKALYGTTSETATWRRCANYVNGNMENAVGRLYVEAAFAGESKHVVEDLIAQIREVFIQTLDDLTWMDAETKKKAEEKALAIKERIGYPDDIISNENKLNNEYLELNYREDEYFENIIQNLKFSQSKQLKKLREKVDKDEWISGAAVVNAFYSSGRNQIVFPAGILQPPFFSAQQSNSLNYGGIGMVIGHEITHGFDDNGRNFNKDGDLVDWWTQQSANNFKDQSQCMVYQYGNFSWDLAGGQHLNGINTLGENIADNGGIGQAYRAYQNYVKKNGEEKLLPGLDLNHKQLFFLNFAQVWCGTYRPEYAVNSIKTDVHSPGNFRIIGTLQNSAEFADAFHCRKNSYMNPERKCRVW

B1: NL1: recombinant rat neuroligin-1, soluble ectodomain (R&D systems) (protein, UniProt Q62765 46-697, looked up)
extracellular domain: QKLDDVDPLVTTNFGKIRGIKKELNNEILGPVIQFLGVPYAAPPTGEHRFQPPEPPSPWSDIRNATQFAPVCPQNIIDGRLPEVMLPVWFTNNLDVVSSYVQDQSEDCLYLNIYVPTEDVKRISKECARKPGKKICRKGDIRDSGGPKPVMVYIHGGSYMEGTGNLYDGSVLASYGNVIVITVNYRLGVLGFLSTGDQAAKGNYGLLDLIQALRWTSENIGFFGGDPLRITVFGSGAGGSCVNLLTLSHYSEGNRWSNSTKGLFQRAIAQSGTALSSWAVSFQPAKYARILATKVGCNVSDTVELVECLQKKPYKELVDQDVQPARYHIAFGPVIDGDVIPDDPQILMEQGEFLNYDIMLGVNQGEGLKFVENIVDSDDGVSASDFDFAVSNFVDNLYGYPEGKDVLRETIKFMYTDWADRHNPETRRKTLLALFTDHQWVAPAVATADLHSNFGSPTYFYAFYHHCQTDQVPAWADAAHGDEVPYVLGIPMIGPTELFPCNFSKNDVMLSAVVMTYWTNFAKTGDPNQPVPQDTKFIHTKPNRFEEVAWTRYSQKDQLYLHIGLKPRVKEHYRANKVNLWLELVPHLHNLNDISQYTSTTTKVPSTDITLRPTRKNSTPVTSAFPTAKQDDPKQQPSPFSVDQRDYSTELS
modifications: extracellular domain

How the values were obtained:
[1] = target: T1, brain-derived NEP; experiment: Neprilysin activity in NEP-enriched brain membrane fraction of WT mice; format: biochemical, mouse (C57Bl/6j); conditions: 40 μg protein, n = 5
Protocol: To measure NEP activity in brain tissue, whole brains without cerebellum were dissected from adult mice (C57Bl/6j or 5XFAD) and homogenized with a Teflon-glass homogenizer in five volumes (w/v) of ice-cold lysis buffer containing PBS (pH 7.4), 0.25 M sucrose and protease inhibitor cocktail (Complete™, EDTA-free, Roche Diagnostics, Indianapolis, IN). The homogenates were centrifuged at 9000 × g for 15 min at 4 °C. The supernatants were further centrifuged at 20,000 × g at 4 °C for 20 min. The resulting pellets were solubilized in resuspension buffer containing PBS (pH 7.4) and 1% Triton X-100 for 1 h on ice and again centrifuged at 20,000 × g at 4 °C for 20 min. Clear supernatants were used as membrane-extracted fractions. Protein concentrations of Triton-extracted membrane fractions were determined using the Pierce BCA Protein Assay kit (Thermo Fisher Scientific). The standard assay mixture consisted of membrane fraction containing 40 μg total protein diluted in 40 μl of dilution buffer, 10 μl of testing compound (NL1, neurolide or vehicle), and 50 μl of NEP substrate (5-FAM/QXL; Anaspec) in a total volume of 100 μl. The reaction was initiated by adding substrate to the assay mixture. […] Positive and negative controls were set up according to the manufacturer’s protocol (Anaspec). Fluorescence was measured at Ex/Em = 485/535 nm every 20 min for 2 h. The data were expressed as percentage of relative activity of neprilysin.

[2] = tested on: 5XFAD and WT mice; experiment: Aβ plaque load, Thioflavin-S staining of brain sections; format: in vivo, mouse
Protocol: At the age of 2 months, 5XFAD and WT mice were injected subcutaneously (s.c.) with either neurolide (10 mg/kg) or saline in a volume of 0.1 ml/10 g of body weight three times a week for 10 weeks.
After 10 weeks of treatment, mice were transcardially perfused with 0.1 M PBS, pH 7.4 under deep pentobarbital anesthesia (intraperitoneal, 200 mg/kg). The left brain hemispheres were postfixed in 4% paraformaldehyde in PBS. The brain hemispheres were further dehydrated in ethanol, cleared, embedded in paraffin blocks and serially sectioned into 7-μm coronal sections through the entire brain hemisphere. Parallel series of sections were collected, consisting of 12 equally spaced Sects. (400 μm apart). One of the series was stained with 1% Thioflavin-S for histological evaluation of Aβ plaque formation. Another series was used for immunohistochemical staining of GFAP + astrocytes as described previously. Extracellular Aβ plaque load was assessed in cortex, hippocampus, striatum, thalamus, and hypothalamus. GFAP-positive astrocytes were assessed in motor cortex. Serial super images of whole-brain sections were acquired using an Olympus BX-51 microscope equipped with the Visiopharm Integrator System software (Visiopharm) and analyzed using the ImageJ software package. The pictures were converted to 8-bit images, and the area of interest was marked. The intensity threshold was fixed to fit Thioflavin-S or GFAP signal. The area, covered by Thioflavin-S or GFAP staining, was measured in selected regions.

[3] = target: T2, recombinant rat NL1 (Rattus norvegicus, UniProt Q62765); experiment: Surface plasmon resonance binding to immobilized NL1; conditions: SPR, KD for Aβ1-42 versus KD for NX1β
T2 construct: the extracellular domain of NL1 was immobilized on a sensor chip; purchased R&D systems (Abingdon, UK)
Protocol: Binding analysis was performed on a Biacore 2000 SPR biosensor (GE Healthcare) at 25 °C using HBS-P (10 mM HEPES, pH 7.4, 150 mM NaCl, 0.005% [v/v] Surfactant P20) supplemented with 3 mM CaCl2 as a running buffer. Approximately 2000 Resonance Units (RU) of NL1 was immobilized on a CM4 sensor chip at a flow rate of 5 μl/min by amine coupling. Binding to serially diluted recombinant NX1β, used as a positive control, was performed as previously described. Aβ1-42 was dissolved in anhydrous DMSO to a stock concentration of 3.21 mM followed by serial dilution in running buffer. Peptide was injected into the chip, and binding experiments were performed at a flow rate of 20 μl/min, followed by regeneration of sensor chip with 10 μl of 15 mM NaOH and 150 mM NaCl. After subtraction of blank control, the binding curves were analyzed based on a nonlinear curve fitting using a 1:1 Langmuir binding model and the software package BIAevaluation 4 (GE Healthcare). The apparent equilibrium constant (KD) was calculated as kd/ka, in which ka and kd are the apparent association and dissociation constants, respectively.

[4] = tested on: Aβ1-42; conditions: NL1 at 1 nM; cited from earlier work
Source text: This higher accumulation of Aβ plaques promoted by the neurolide treatment prompted us to look for an explanation for this phenome ...

[5] = 5XFAD mice, 10 mg/kg s.c. three times a week for 10 weeks, neurolide n = 11 versus saline n = 13

| Molecule | activity of brain-derived NEP ([1]; neurolide 10 μM) | average size of thioflavin-S-positive plaques in the cortex [2, 5] | fractional area of thioflavin-S-positive plaques in the cortex [2, 5] | plaque area or plaque size in other brain regions ([2]; 5XFAD mice, hippocampus, striatum, thalamus, hypothalamus, versus saline) | plaques in WT brains ([2]; WT mice, 10 mg/kg s.c. three times a week for 10 weeks) | affinity constant KD of NL1 to Aβ, times lower compared to NX1β [3] | activity of brain-derived NEP ([1]; sNL1 0.3 μM) | effect on Aβ aggregation at low concentration [4] |
| --- | --- | --- | --- | --- | --- | --- | --- | --- |
| I: SEGNRWSNSTKGLFQRAKK-NH2 / II: SEGNRWSNSTKGLFQRAK / III: SEGNRWSNSTKGLFQRA / IV: SEGNRWSNSTKGLFQRA (amide I:18-IV:C, I:19-II:C, II:18-III:C; C-terminus assumed) [neurolide] | significantly decreased | significant increase | significant increase | no significant difference | no plaques | – | – | – |
| B1 | – | – | – | – | – | approximately 11 times | significantly decreased | accelerated the aggregation |
